Assay [1] relates to APJ. The conditions noted are these: ERK1/2-dependent; ref Perjés et al., 2016; cited from earlier work. From the text:
Elabela (also known as apela or toddler), which has little sequence homology with Apelin, has recently been identified as the second endogenous APJ ligand. […] Elabela is highly expressed during embryogenesis and in adult kidney. Elabela is also derived from a precursor of 54 amino acids. Its 13 C-terminal amino acids are highly conserved among all spe ...

Assay [2] has as its system APJ. The conditions noted are these: cited from earlier work. From the text:
Elabela (also known as apela or toddler), which has little sequence homology with Apelin, has recently been identified as the second endogenous APJ ligand. […] Elabela is highly expressed during embryogenesis and in adult kidney. Elabela is also derived from a precursor of 54 amino acids.

Assay [3] concerns pulmonary arterial hypertension (PAH). Details: method as in Yang et al., 2017. The conditions noted are these: exogenous peptide; ref Yang et al., 2017; cited from earlier work.
Assay [4] has as its target Apelin receptor (APJ) (UniProt P35414). Put plainly: radioligand binding; competition binding: HEK-293/APJ membrane preparation 20 μg/well, 0.1 nM [125I]-apelin-13, test peptides in 5-fold dilutions starting at 10 µM; 50 mM HEPES pH 7.4, 5 mM MgCl2, 1 mM CaCl2, 0.2% BSA; 30°C, 2 h; Ki calculated from IC50.
The target of another assay is APJ-Venus (UniProt P35414).
For assay [5], the target named is APJ-Renilla luciferase (Rluc) (UniProt P35414).
Assay [6] has as its target Apelin receptor (APJ) (UniProt P35414).
Another assay relates to μ opioid receptor (MOR). To be noted: ref Markham, 2020; cited from earlier work. From the text:
GPCR ligands were traditionally thought to act equally on all the downstream signaling pathways of the GPCRs, including the multiple signaling pathways mediated by G proteins and β-arrestin.

Assay [7] deals with APJ. Details: method as in Nyimanu et al., 2019. The conditions noted are these: ref Nyimanu et al., 2019; cited from earlier work.
A further assay addresses T1, APJ (Apelin receptor) (Homo sapiens, UniProt P35414).
T1 sequence (P35414 1-380): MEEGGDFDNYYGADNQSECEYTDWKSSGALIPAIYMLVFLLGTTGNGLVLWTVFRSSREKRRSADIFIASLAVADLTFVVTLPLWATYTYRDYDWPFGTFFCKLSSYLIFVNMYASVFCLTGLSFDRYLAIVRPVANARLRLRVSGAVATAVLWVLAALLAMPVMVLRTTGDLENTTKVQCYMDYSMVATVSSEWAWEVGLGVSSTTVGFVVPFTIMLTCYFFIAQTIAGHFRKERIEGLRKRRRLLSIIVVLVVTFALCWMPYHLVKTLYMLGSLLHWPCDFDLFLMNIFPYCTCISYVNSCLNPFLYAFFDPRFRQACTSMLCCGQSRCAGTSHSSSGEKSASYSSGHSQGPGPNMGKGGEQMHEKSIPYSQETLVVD
Put plainly: Radioligand competition binding assay, [125I]-apelin-13, HEK-293/APJ membranes. Details: APJ membrane preparations were obtained from transiently transfected HEK293 cells; host or cells: HEK293 cells, transiently transfected; membranes prepared. A general note: Displacement assays read how much labelled ligand stays bound in the presence of the test substance.

No end group written: not given here.

As a reminder, the IC50 is the concentration at which inhibition is half-maximal. What is called Ki is a measure of affinity in units of concentration, obtained from inhibition or displacement.

Experimental for APJ (Apelin receptor): APJ membrane preparations were obtained from transiently transfected HEK293 cells. HEK293 cells were cultured in complete DMEM (DMEM plus 10% FBS) for 24 h, until they reached at least 70% confluence. Transfection reagent containing 20 μg of the APJ expression plasmid was added, and the cells were incubated for another 24 h. The cells were then harvested into 25 ml homogenization buffer (HB) [250 mM sucrose and 25 mM HEPES (pH 7.3); adjusted to pH 7.5 at 4°C and then filtered] supplemented with 250 μL phenylmethylsulfonyl fluoride (PMSF), homogenized using an IKA T25 Ultra Turrax (24,000 rpm), and centrifuged at 6,025 rpm for 15 min at 4°C. […]
The binding reaction was stopped by rapid filtration through polyethyleneimine (PEI)-coated GF/B plates using a cell harvester, and the plates were washed three times with ice-cold wash buffer [50 mM HEPES (pH 7.4), 500 mM NaCl, and 0.1% BSA; filtered and stored at 4°C]. The filtration plates were dried at 37°C for 2 h; 50 μL scintillation cocktail (Perkin Elmer, Wellesley, MA, United States), was added to each well; and the radioactivity was measured using a Perkin Elmer 1450 MicroBeta TriLux Microplate Scintillation and Luminescence Counter.
The binding reaction was stopped, the plates were washed and dried, the scintillation cocktail was added, and the radioactivity was measured as described above.

As to Elabela, the “cardiac contractility (in words)” value with APJ [1] is “increase cardiac contractility in an ERK1/2-dependent manner”. The “APJ signaling (in words)” value in the assay with APJ [2] (ref Peverelli et al., 2014) is “inhibit cyclic AMP (cAMP) production, activate the extracellular signal-regulated kinases (ERK1/2), and mobilize intracellular calcium through APJ internalization”. In addition, in assay [3], the “effect in PAH in rats (in words)” value was “reduce the severity of cardiopulmonary remodeling and function in PAH in rats”.

As to Apelin-17 (peptide), in the assay with Apelin receptor (APJ) [4], the IC50 is 5.2 nM. In the assay with APJ-Venus, the LogEC50 of the ligand-induced interaction of APJ with β-arrestin 1 (BRET between APJ-Venus and β-arrestin 1-Rluc, HEK293 cells) is -7.9; the LogEC50 of the ligand-induced interaction of APJ with β-arrestin 2 (BRET between APJ-Venus and β-arrestin2-Rluc, HEK293 cells) is -8.33. In assay [5], this compound yielded a LogEC50 of the ligand-induced recruitment of GRK2 to APJ (BRET between APJ-Rluc and GRK2-GFP2, HEK293 cells) of -8.19; a LogEC50 of the ligand-induced recruitment of GRK5 to APJ (BRET between APJ-Rluc and GRK5-GFP2, HEK293 cells) of -8.58. For the same compound, in the assay with Apelin receptor (APJ) [6], the LogEC50 of the ligand-induced interaction between β-arrestin 1 and AP2 (BRET between β-arrestin 1-Rluc and β2-adaptin-EYFP in HEK293 cells co-transfected with APJ, 30 min) was -8.48; the LogEC50 of the ligand-induced interaction between β-arrestin 2 and AP2 (BRET between β-arrestin 2-Rluc and β2-adaptin-EYFP in HEK293 cells co-transfected with APJ, 30 min) is -7.17.

`COc1ccsc1CNCC[C@@]1(c2ccccn2)CCOC2(CCCC2)C1` [oliceridine]: the “signaling bias at opioid receptor (in words)” value in the assay on μ opioid receptor (MOR) was “selective for G protein pathway, and the effect of β - arrestin recruitment is low”.

On to “Apelin-36-[L28A]: G protein biased APJ agonist (LVQPRGSRNGPGPWQGGRRKFRRQRPRASHKGPMPF; Apelin-36; UniProt Q9ULZ1 42-77, looked up, variant L28A)”, for which, in the assay with APJ [2] (ref Nyimanu et al., 2019), the “signaling bias (in words)” value is given as “G protein biased APJ agonists”. For the same compound, in the assay with APJ [7], the “binding to APJ (in words)” value is reported as “nanomolar affinities”.

As for “LVQPRGSRNGPGPWQGGRRKFRRQRPRLSHKGPMPF [Apelin-36]”, the inhibition constant Ki on APJ (Apelin receptor) came to 1.74 nM.

The values above are taken from publication PMC7970304, “The Effects of Apelin and Elabela Ligands on Apelin Receptor Distinct Signaling Profiles” (Frontiers in Pharmacology, 2021).
